Earlier results as cited in US8647676B2, “Antimicrobial composition from copepods” (priority 2008, dated 2014).

Details: Iwamoto et al. Tetrahedron, 1999 vol. 55 p. 14353

penostatin
cytotoxicity (in words): mild cytotoxic
